Measurements reported in PubChem BioAssay (NCI).
Converted amounts (≈) assume the structure as drawn.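 Grown in 96-well plates, cells were treated for 48 hours with each compound at five concentrations. Insufficient inhibition: endpoint recorded as highest concentration tested. At the GI50, growth is halved. TGI: total growth inhibition.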 Where a SMILES comes first, the peptide text is derived from it. The star is where a group is joined. Boc = CC(C)(C)OC(=O)*; OBn = c1ccc(CO*)cc1

Key:
Assay in all cases: NCI-60 cell line screen, 48 h
NCI-H460 lung = system: NCI-H460 lung
RPMI-8226 leukemia = system: RPMI-8226 leukemia
A498 renal = system: A498 renal
NCI-H226 lung = system: NCI-H226 lung
UACC-257 melanoma = system: UACC-257 melanoma
M14 melanoma = system: M14 melanoma
SF-539 CNS = system: SF-539 CNS
OVCAR-8 ovarian = system: OVCAR-8 ovarian
HOP-92 NSCLC = system: HOP-92 NSCLC
786-0 renal = system: 786-0 renal
HT29 colon = system: HT29 colon
OVCAR-5 ovarian = system: OVCAR-5 ovarian
PC-3 prostate = system: PC-3 prostate
SW-620 colon = system: SW-620 colon
TK-10 renal = system: TK-10 renal
HOP-62 NSCLC = system: HOP-62 NSCLC
ACHN renal = system: ACHN renal
DU-145 prostate = system: DU-145 prostate
SNB-19 CNS = system: SNB-19 CNS
COLO 205 colon = system: COLO 205 colon
MCF7 breast = system: MCF7 breast
MOLT-4 leukemia = system: MOLT-4 leukemia
SK-MEL-28 melanoma = system: SK-MEL-28 melanoma
SN12C renal = system: SN12C renal
HCT-15 colon = system: HCT-15 colon
OVCAR-3 ovarian = system: OVCAR-3 ovarian
RXF 393 renal = system: RXF 393 renal
T-47D breast = system: T-47D breast
SF-268 CNS = system: SF-268 CNS
SR leukemia = system: SR leukemia
K-562 leukemia = system: K-562 leukemia
MDA-MB-435 = system: MDA-MB-435
MALME-3M melanoma = system: MALME-3M melanoma
NCI-H23 lung = system: NCI-H23 lung
UO-31 renal = system: UO-31 renal
SF-295 CNS = system: SF-295 CNS
CCRF-CEM leukemia = system: CCRF-CEM leukemia
KM12 colon = system: KM12 colon
U251 CNS = system: U251 CNS
NCI/ADR-RES ovarian = system: NCI/ADR-RES ovarian
BT-549 breast = system: BT-549 breast
A549 NSCLC = system: A549 NSCLC
HL-60(TB) leukemia = system: HL-60(TB) leukemia
NCI-H522 lung = system: NCI-H522 lung
SNB-75 CNS = system: SNB-75 CNS
UACC-62 melanoma = system: UACC-62 melanoma
OVCAR-4 ovarian = system: OVCAR-4 ovarian
IGROV1 ovarian = system: IGROV1 ovarian
CAKI-1 renal = system: CAKI-1 renal
MDA-MB-231 breast = system: MDA-MB-231 breast
EKVX NSCLC = system: EKVX NSCLC
HCT-116 colon = system: HCT-116 colon
HS 578T breast = system: HS 578T breast

Cc1cc(C)c(NS(=O)c2cccc([N+](=O)[O-])c2)c(C)c1 (stereo not given)
TGI (NCI-H460 lung): > 100 µM
TGI (RPMI-8226 leukemia): > 100 µM
TGI (A498 renal): > 100 µM
TGI (NCI-H226 lung): > 100 µM
TGI (UACC-257 melanoma): > 100 µM
TGI (M14 melanoma): > 100 µM
TGI (SF-539 CNS): > 100 µM
TGI (OVCAR-8 ovarian): > 100 µM
TGI (HOP-92 NSCLC): > 100 µM
TGI (786-0 renal): > 100 µM
TGI (HT29 colon): > 100 µM
TGI (OVCAR-5 ovarian): > 100 µM
TGI (PC-3 prostate): > 100 µM
TGI (SW-620 colon): > 100 µM
TGI (TK-10 renal): > 100 µM
TGI (HOP-62 NSCLC): > 100 µM
TGI (ACHN renal): > 100 µM
TGI (DU-145 prostate): > 100 µM
TGI (SNB-19 CNS): > 100 µM
TGI (COLO 205 colon): > 100 µM
TGI (MCF7 breast): > 100 µM
TGI (MOLT-4 leukemia): > 100 µM
TGI (SK-MEL-28 melanoma): > 100 µM
TGI (SN12C renal): > 100 µM
TGI (HCT-15 colon): > 100 µM
TGI (OVCAR-3 ovarian): > 100 µM
TGI (RXF 393 renal): > 100 µM
TGI (T-47D breast): > 100 µM
TGI (SF-268 CNS): > 100 µM
TGI (SR leukemia): > 100 µM
TGI (K-562 leukemia): > 100 µM
TGI (MDA-MB-435): > 100 µM
TGI (MALME-3M melanoma): > 100 µM
TGI (NCI-H23 lung): > 100 µM
TGI (UO-31 renal): > 100 µM
TGI (SF-295 CNS): > 100 µM
TGI (CCRF-CEM leukemia): > 100 µM
TGI (KM12 colon): > 100 µM
TGI (U251 CNS): > 100 µM
TGI (NCI/ADR-RES ovarian): > 100 µM
TGI (BT-549 breast): > 100 µM
TGI (A549 NSCLC): > 100 µM
TGI (HL-60(TB) leukemia): > 100 µM

CC(C)CC(NC(=O)OC(C)(C)C)C(=O)NC(CCC(=O)OCc1ccccc1)C(N)=O (stereo not drawn) (Boc-Leu-Glu(OBn)-NH2; configuration not given here)
GI50 (RPMI-8226 leukemia): 43.9 µg/mL (≈ 97.6 µM)
GI50 (A498 renal): 45.5 µg/mL (≈ 101 µM)
GI50 (UACC-257 melanoma): 20.1 µg/mL (≈ 44.7 µM)
TGI (UACC-257 melanoma): 85.9 µg/mL
GI50 (M14 melanoma): 32.7 µg/mL (≈ 72.6 µM)
GI50 (NCI-H522 lung): 29.4 µg/mL (≈ 65.5 µM)
GI50 (COLO 205 colon): 87.1 µg/mL (≈ 194 µM)
GI50 (SK-MEL-28 melanoma): 20.8 µg/mL (≈ 46.4 µM)
TGI (SK-MEL-28 melanoma): 51.4 µg/mL
GI50 (SNB-75 CNS): 32.7 µg/mL (≈ 72.8 µM)
GI50 (UACC-62 melanoma): 47.9 µg/mL (≈ 107 µM)
GI50 (K-562 leukemia): 54.1 µg/mL (≈ 120 µM)
GI50 (MALME-3M melanoma): 32.2 µg/mL (≈ 71.6 µM)
GI50 (UO-31 renal): 85.5 µg/mL (≈ 190 µM)
GI50 (OVCAR-4 ovarian): 34.8 µg/mL (≈ 77.4 µM)

COc1cccc2c1C(=O)c1c(O)c3c(c(O)c1C2=O)C[C@@](O)(/C(C)=N/NC(=O)c1ccc(Cl)c(Cl)c1)C[C@@H]3OC1CC(N)C(O)C(C)O1 (stereo not given in full)
TGI (NCI-H460 lung): > 100 µM
TGI (IGROV1 ovarian): > 100 µM
TGI (NCI-H226 lung): 0.231 µM
TGI (UACC-257 melanoma): 1.05 µM
TGI (M14 melanoma): 1.2 µM
TGI (786-0 renal): 2.1 µM
TGI (HT29 colon): 0.379 µM
TGI (CAKI-1 renal): 0.562 µM
TGI (OVCAR-5 ovarian): 0.686 µM
TGI (MDA-MB-231 breast): 2.51 µM
TGI (SW-620 colon): 1.35 µM
TGI (EKVX NSCLC): 7.4 µM
TGI (TK-10 renal): 1.83 µM
TGI (HOP-62 NSCLC): 1.28 µM
TGI (ACHN renal): 0.256 µM
TGI (SNB-19 CNS): 0.445 µM
TGI (COLO 205 colon): 1.5 µM
TGI (MCF7 breast): > 100 µM
TGI (SK-MEL-28 melanoma): 0.274 µM
TGI (SN12C renal): 0.877 µM
TGI (HCT-15 colon): 1.16 µM
TGI (OVCAR-3 ovarian): 0.934 µM
TGI (SNB-75 CNS): 2.02 µM
TGI (UACC-62 melanoma): 0.34 µM
TGI (T-47D breast): > 100 µM
TGI (HCT-116 colon): 1.04 µM
TGI (K-562 leukemia): 1.06 µM
TGI (MDA-MB-435): 1.11 µM
TGI (MALME-3M melanoma): 0.0838 µM
TGI (NCI-H23 lung): 0.618 µM
TGI (UO-31 renal): > 100 µM
TGI (HS 578T breast): 3.18 µM
TGI (SF-295 CNS): 0.527 µM
TGI (KM12 colon): 0.624 µM
TGI (U251 CNS): 0.363 µM
TGI (NCI/ADR-RES ovarian): 2.84 µM
TGI (A549 NSCLC): 2.68 µM
TGI (HL-60(TB) leukemia): 0.397 µM

Cc1ccc(S(=O)(=O)N2CCN3CCN(CCN(C)CCN4CCN(CC4)CCN(S(=O)(=O)c4ccc(C)cc4)CCN(S(=O)(=O)c4ccc(C)cc4)CCN(S(=O)(=O)c4ccc(C)cc4)CCN(S(=O)(=O)c4ccc(C)cc4)CCN4CCN(CCN(C)CCN5CCN(CC5)CCN(S(=O)(=O)c5ccc(C)cc5)CCN(S(=O)(=O)c5ccc(C)cc5)CCN(S(=O)(=O)c5ccc(C)cc5)CC2)CC4)CC3)cc1
TGI (RPMI-8226 leukemia): 11.9 µM
TGI (SF-539 CNS): 4.45 µM
TGI (OVCAR-5 ovarian): 3.42 µM
TGI (EKVX NSCLC): 5.82 µM
TGI (MCF7 breast): 3.3 µM
TGI (MOLT-4 leukemia): 2.91 µM
TGI (HCT-15 colon): 2.82 µM
TGI (SNB-75 CNS): 5.58 µM
TGI (SF-268 CNS): 6.62 µM
TGI (SR leukemia): 10.6 µM
TGI (K-562 leukemia): 11 µM
TGI (CCRF-CEM leukemia): 0.972 µM
TGI (NCI/ADR-RES ovarian): > 100 µM
TGI (HL-60(TB) leukemia): 2.7 µM
